The source of these data is patent US8735406B2, “8-oxodihydropurine derivative” (Dainippon Sumitomo Pharma Co., Ltd., priority 2009, dated 2014).

This test addresses T1, FAAH (Rattus norvegicus, UniProt P97612).
T1 construct: Preparation of Rat Brain Membranes Preparations (FAAH Enzyme Solution); from tissue; host or cells: rat cerebrum (brain membrane preparation)
T1 sequence (P97612 1-579): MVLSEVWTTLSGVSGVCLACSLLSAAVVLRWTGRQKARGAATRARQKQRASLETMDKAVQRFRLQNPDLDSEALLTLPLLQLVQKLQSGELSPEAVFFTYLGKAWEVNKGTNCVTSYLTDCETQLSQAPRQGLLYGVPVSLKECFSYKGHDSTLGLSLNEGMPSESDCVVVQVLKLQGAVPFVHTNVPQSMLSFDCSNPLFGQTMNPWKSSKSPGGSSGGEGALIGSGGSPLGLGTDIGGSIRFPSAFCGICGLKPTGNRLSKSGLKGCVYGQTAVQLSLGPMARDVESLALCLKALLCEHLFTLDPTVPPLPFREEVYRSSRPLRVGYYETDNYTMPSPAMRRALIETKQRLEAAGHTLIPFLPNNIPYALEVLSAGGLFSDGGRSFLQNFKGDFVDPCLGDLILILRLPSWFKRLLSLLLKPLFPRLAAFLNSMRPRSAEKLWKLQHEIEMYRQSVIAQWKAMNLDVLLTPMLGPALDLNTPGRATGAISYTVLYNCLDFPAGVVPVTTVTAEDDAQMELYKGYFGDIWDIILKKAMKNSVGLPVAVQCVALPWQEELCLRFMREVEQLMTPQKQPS
As to the kind of experiment: Determination of FAAH inhibitory activity in rat (rat brain membrane preparations, [3H]-anandamide hydrolysis). The following applies: rat brain membrane preparations; for IC50: read-out: FAAH Inhibition IC50. The class given is biochemical. The gist of the method: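 Compounds tested from 0.1 nM to 1 μM to derive IC50 against FAAH hydrolysis in rat brain membrane preparations (100 μg/mL). A 10-min 37 °C preincubation was followed by 10 min with [3H]-anandamide (2 nM) mixed with 2 μM unlabelled anandamide. Radioactive ethanolamine was extracted into the water/methanol layer and counted.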

Where [1] appears, read: 100 nM test substance, read-out: FAAH Inhibition, Inhibition Rate at 100 nM.
The mark [2] stands for this setting: at 100 nM, read-out: FAAH Inhibition Inhibition Rate at 100 nM.

Read-outs that look alike come from different tables or passages of the source.

Turning to `COCc1ncc2c(n1)n(C)c(=O)n2C(=O)N1CC[C@H](Oc2cccc(Cl)c2)C1` [Example 490, 7-{[(3S)-3-(3-Chlorophenoxy)pyrrolidin-1-yl]carbonyl}-2-(methoxymethyl)-9-methyl-7,9-dihydro-8H-purine-8-one], the inhibition at 0.1 µM under setting [1] worked out at 97%. In addition, under “test substance 0.1 nM to 1 μM”, the IC50 worked out at 2 nM.

Take `COCc1ncc2c(n1)n(C)c(=O)n2C(=O)N1CC[C@H](Oc2ccccc2Cl)C1` [Example 491, 7-{[(3S)-3-(2-Chlorophenoxy)pyrrolidin-1-yl]carbonyl}-2-(methoxymethyl)-9-methyl-7,9-dihydro-8H-purine-8-one]: the inhibition at 0.1 µM under setting [1] was 100%. Also, the IC50 (test substance 0.1 nM to 1 μM) was found to be 2 nM.

On to `COCc1ncc2c(n1)n(C)c(=O)n2C(=O)N1CC(COc2ccc(F)cc2)C1` [Example 492, 7-({3-[(4-Fluorophenoxy)methyl]azetidin-1-yl}carbonyl)-2-(methoxymethyl)-9-methyl-7,9-dihydro-8H-purine-8-one], for which the inhibition at 0.1 µM under setting [1] worked out at 103%. Besides, the IC50 (test substance 0.1 nM to 1 μM) worked out at 2 nM.

For `CN(C)C(=O)n1c(=O)n(C)c2cnc(CCc3ccc(OC(F)F)cc3)nc21` [Example 493, 2-{2-[4-(difluoromethoxy)phenyl]ethyl}-N,N,7-trimethyl-8-oxo-7,8-dihydro-9H-purine-9-carboxamide], under setting [1], the inhibition at 0.1 µM is 79%. In addition, where the note is “test substance 0.1 nM to 1 μM”, the IC50 amounted to 27 nM.

Take `Cc1ccc(CCc2ncc3c(n2)n(C(=O)N(C)C)c(=O)n3C)cc1` [Example 494, N,N,7-Trimethyl-2-[2-(4-methylphenyl)ethyl]-8-oxo-7,8-dihydro-9H-purine-9-carboxamide]: under setting [1], the inhibition at 0.1 µM came out at 98%. Moreover, where the note is “test substance 0.1 nM to 1 μM”, the IC50 was determined as 11 nM.

In the case of `CN(C)C(=O)n1c(=O)n(C)c2cnc(CCc3cc(F)cc(F)c3)nc21` [Example 497, 2-[2-(3,5-Difluorophenyl)ethyl]-N,N,7-trimethyl-8-oxo-7,8-dihydro-9H-purine-9-carboxamide], the “FAAH Inhibition, Inhibition Rate at 100 nM” value (100 nM test substance, 0.1 µM) was determined as 94%. For the same compound, the IC50 (test substance 0.1 nM to 1 μM) came out at 25 nM.

On to `CN(C)C(=O)n1c(=O)n(C)c2cnc(CCc3ccc(F)cc3F)nc21` [Example 506, 2-[2-(2,4-Difluorophenyl)ethyl]-N,N,7-trimethyl-8-oxo-7,8-dihydro-9H-purine-9-carboxamide], for which, under setting [1], the inhibition at 0.1 µM stood at 94%. The IC50 (test substance 0.1 nM to 1 μM) came out at 28 nM.

`CN(C)C(=O)n1c(=O)n(C)c2cnc(CCc3cccc(OCC(F)F)c3)nc21` [Example 530, 2-{2-[3-(2,2-Difluoroethoxy)phenyl]ethyl}-N,N,7-trimethyl-8-oxo-7,8-dihydro-9H-purine-9-carboxamide]: the inhibition at 0.1 µM under setting [1] was 66%. The IC50 (test substance 0.1 nM to 1 μM) stood at 52 nM.

Regarding `CN(C)C(=O)n1c(=O)n(C)c2cnc(CCc3ccc(F)cc3)nc21` [Example 533, 2-[2-(4-Fluorophenyl)ethyl]-N,N,7-trimethyl-8-oxo-7,8-dihydro-9H-purine-9-carboxamide], the inhibition at 0.1 µM under setting [1] stood at 53%. The IC50 (test substance 0.1 nM to 1 μM) came to 99 nM.

`CN(C)C(=O)n1c(=O)n(C)c2cnc(CCc3ccc(OCC(F)F)cc3)nc21` [Example 538, 2-{2-[4-(2,2-Difluoroethoxy)phenyl]ethyl}-N,N,7-trimethyl-8-oxo-7,8-dihydro-9H-purine-9-carboxamide]: under setting [1], the inhibition at 0.1 µM turned out to be 51%.

In the case of `CN(C)C(=O)n1c(=O)n(C)c2cnc(CCc3ccc(C(F)(F)F)cc3)nc21` [Example 540, N,N,7-Trimethyl-8-oxo-2-{2-[4-(trifluoromethyl)phenyl]ethyl}-7,8-dihydro-9H-purine-9-carboxamide], the inhibition at 0.1 µM under setting [1] turned out to be 88%. In addition, for the setting “test substance 0.1 nM to 1 μM”, the IC50 amounted to 17 nM.

Turning to `CN(C)C(=O)n1c(=O)n(C)c2cnc(CCc3cccc(OCC(F)(F)F)c3)nc21` [Example 552, N,N,7-Trimethyl-8-oxo-2-{2-[3-(2,2,2-trifluoroethoxy)phenyl]ethyl}-7,8-dihydro-9H-purine-9-carboxamide], the inhibition at 0.1 µM under setting [1] was found to be 98%. In addition, the IC50 (test substance 0.1 nM to 1 μM) turned out to be 15 nM.

On to `CN(C)C(=O)n1c(=O)n(C)c2cnc(CCc3ccc(OCC(F)(F)F)cc3)nc21` [Example 553, N,N,7-Trimethyl-8-oxo-2-{2-[4-(2,2,2-trifluoroethoxy)phenyl]ethyl}-7,8-dihydro-9H-purine-9-carboxamide], for which the inhibition at 0.1 µM under setting [1] was found to be 97%. Also, for the setting “test substance 0.1 nM to 1 μM”, the half-maximal inhibitory concentration (IC50) was 9 nM.

As to `Cn1c(=O)n(C(=O)N2CCC2)c2nc(CCc3ccc(C(F)F)cc3)ncc21` [Example 576, 9-(Azetidin-1-ylcarbonyl)-2-{2-[4-(difluoromethyl)phenyl]ethyl}-7-methyl-7,9-dihydro-8H-purine-8-one], under setting [1], the inhibition at 0.1 µM stood at 110%. Besides, the IC50 (test substance 0.1 nM to 1 μM) came to 10 nM.

For the compound `Cn1c(=O)n(C(=O)N2CCC2)c2nc(CCc3cc(F)cc(F)c3)ncc21` [Example 580, 9-(Azetidin-1-ylcarbonyl)-2-[2-(3,5-difluorophenyl)ethyl]-7-methyl-7,9-dihydro-8H-purine-8-one], the inhibition at 0.1 µM under setting [1] worked out at 81%. Further, for the setting “test substance 0.1 nM to 1 μM”, the IC50 was 25 nM.

Turning to `Cn1c(=O)n(C(=O)N2CCC2)c2nc(CCc3ccccc3F)ncc21` [Example 583, 9-(Azetidin-1-ylcarbonyl)-2-[2-(2-fluorophenyl)ethyl]-7-methyl-7,9-dihydro-8H-purine-8-one], the inhibition at 0.1 µM under setting [1] came out at 87%. The IC50 (test substance 0.1 nM to 1 μM) was 94 nM.

As for `Cn1c(=O)n(C(=O)N2CCC2)c2nc(CCc3ccc(F)cc3)ncc21` [Example 587, 9-(Azetidin-1-ylcarbonyl)-2-[2-(4-fluorophenyl)ethyl]-7-methyl-7,9-dihydro-8H-purine-8-one], the inhibition at 0.1 µM under setting [1] came to 68%. In addition, the IC50 (test substance 0.1 nM to 1 μM) stood at 51 nM.

With `Cn1c(=O)n(C(=O)N2CCC2)c2nc(CCc3ccc(OCC(F)F)cc3)ncc21` [Example 593, 9-(Azetidin-1-ylcarbonyl)-2-{2-[4-(2,2-difluoroethoxy)phenyl]ethyl}-7-methyl-7,9-dihydro-8H-purine-8-one], the inhibition at 0.1 µM under setting [1] was 58%. Further, the half-inhibitory concentration (IC50) (test substance 0.1 nM to 1 μM) was determined as 59 nM.

On to `Cn1c(=O)n(C(=O)N2CCC2)c2nc(CCc3cccc(OCC(F)(F)F)c3)ncc21` [Example 612, 9-(Azetidin-1-ylcarbonyl)-7-methyl-2-{2-[3-(2,2,2-trifluoroethoxy)phenyl]ethyl}-7,9-dihydro-8H-purine-8-one], for which the IC50 amounted to 9 nM. The inhibition at 0.1 µM under setting [2] was found to be 96%.

Turning to `Cn1c(=O)n(C(=O)N2CCC2)c2nc(CCc3ccc(OCC(F)(F)F)cc3)ncc21` [Example 613, 9-(Azetidin-1-ylcarbonyl)-7-methyl-2-{2-[4-(2,2,2-trifluoroethoxy)phenyl]ethyl}-7,9-dihydro-8H-purine-8-one], the IC50 came out at 12 nM. Also, the inhibition at 0.1 µM under setting [2] came out at 95%.

`CN(C)C(=O)n1c(=O)n(C)c2cnc(CCCc3ccccc3)nc21` [Example 614]: the IC50 was 28 nM. Also, the inhibition at 0.1 µM under setting [2] was 81%.

With `CN(C)C(=O)n1c(=O)n(C)c2cnc(CCC3CCCCC3)nc21` [Example 615], the IC50 was 10 nM. Moreover, the inhibition at 0.1 µM under setting [2] came out at 96%.

Regarding `CN(C)C(=O)n1c(=O)n(C)c2cnc(CCCC3CCCCC3)nc21` [Example 616], the IC50 came to 10 nM. For the same compound, the inhibition at 0.1 µM under setting [2] is 99%.

As to `CN(C)C(=O)n1c(=O)n(C)c2cnc(CCCC3CCCC3)nc21` [Example 617], the IC50 came to 6 nM. Also, the inhibition at 0.1 µM under setting [2] turned out to be 93%.

Regarding `CN(C)C(=O)n1c(=O)n(C)c2cnc(CCCCc3ccccc3)nc21` [Example 618], the IC50 was 10 nM. The inhibition at 0.1 µM under setting [2] stood at 101%.

Turning to `Cn1c(=O)n(C(=O)N2CCC2)c2nc(CCCC3CCCCC3)ncc21` [Example 619], the IC50 was 9 nM. Besides, the inhibition at 0.1 µM under setting [2] stood at 103%.

For the compound `Cn1c(=O)n(C(=O)N2CCC2)c2nc(CCc3ccc4c(c3)CCO4)ncc21` [Example 620], the IC50 amounted to 88 nM. Further, the inhibition at 0.1 µM under setting [2] was 87%.

`CCCc1ncc2c(n1)n(C)c(=O)n2C(=O)N1CC(Oc2ccccc2CC)C1` [Example 629]: the IC50 was 105 nM. Further, the inhibition at 0.1 µM under setting [2] came out at 48%.

On to `Cn1c(=O)n(C(=O)N2CC(c3ccc(F)cc3)C2)c2nc(C3CC3)ncc21` [Example 630], for which the concentration for half-maximal inhibition (IC50) came out at 10 nM. In addition, the inhibition at 0.1 µM under setting [2] is 102%.

As for `Cn1c(=O)n(C(=O)N2CC(c3ccccc3)C2)c2nc(C3CC3)ncc21` [Example 631], the IC50 is 36 nM. Besides, the inhibition at 0.1 µM under setting [2] was 77%.

Take `Cn1c(=O)n(C(=O)N2CC(c3cccc(F)c3)C2)c2nc(C3CC3)ncc21` [Example 632]: the IC50 was found to be 31 nM. Under setting [2], the inhibition at 0.1 µM was determined as 84%.

In the case of `CCCc1ncc2c(n1)n(C(=O)N1CC(c3cccc(F)c3)C1)c(=O)n2C` [Example 633], the IC50 turned out to be 19 nM. Further, the inhibition at 0.1 µM under setting [2] turned out to be 82%.
